According to patent US20240148821A1, “PHARMACEUTICAL USE OF CYCLIC PEPTIDE COMPOUND” (CHUGAI SEIYAKU KABUSHIKI KAISHA, priority 2021, published 2024):
pIC50: −log10 of the molar value. Numbered stars: 1 amine (or outer) side, 2 acyl side, 3 side chain; on linkers, the order of the positions; unused ones are H or OH. Bridge positions count the residues as written; N and C are the ends. Square brackets hold non-standard residues; d marks the D form. Peptide text beside a SMILES is read from it. * marks the point of attachment. hPhe(3-Cl-4-CF3) = N[C@@H](CCc1ccc(C(F)(F)F)c(Cl)c1)C(=O)O; hPhe(3-F,4-CF3) = N[C@@H](CCc1ccc(C(F)(F)F)c(F)c1)C(=O)O; NMePhe(4-CF3) = CN[C@@H](Cc1ccc(C(F)(F)F)cc1)C(=O)O; X25 = COc1ccc(C[C@@H](C(=O)[*:2])N(C)[*:1])cn1; NMeNle(6-CHF2) = CN[C@@H](CCCCC(F)F)C(=O)O; NMedβ3hAla = C[C@H](CC(=O)[*:2])N(C)[*:1]; NMeAla(cPent) = CN[C@@H](CC1CCCC1)C(=O)O; NMeGly(cPent) = CN[C@H](C(=O)O)C1CCCC1; X26 = CC(C)=CC[C@H](N[*:1])C(=O)[*:2]; NMe3Pal = CN[C@@H](Cc1cccnc1)C(=O)O; NMeCha = CN[C@@H](CC1CCCCC1)C(=O)O; Hyp = O=C(O)[C@@H]1C[C@@H](O)CN1; NMeChg = CN[C@H](C(=O)O)C1CCCCC1; NMeD = CN[C@@H](CC(=O)O)C(=O)O; NMeL = CN[C@@H](CC(C)C)C(=O)O; NMeNva = CCC[C@H](NC)C(=O)O; NMeV = CN[C@H](C(=O)O)C(C)C; Trifluoroethyl = FC(F)(F)C*; d(β3hA) = C[C@@H](N)CC(=O)O; NMeS = CN[C@@H](CO)C(=O)O; NMeA = CN[C@@H](C)C(=O)O; Piperidide = C1CCN(*)CC1; Pyrrolidide = C1CCN(*)C1; Ac5c = NC1(C(=O)O)CCCC1; Aze = O=C(O)[C@@H]1CCN1; Aib = CC(C)(N)C(=O)O; Sar = CNCC(=O)O

How the values were obtained:
[1] = target: protein-protein interaction between Kras and SOS1 (biotin-tagged human Kras loaded with GDP, His-tagged human SOS1) (Homo sapiens (Human), UniProt P01116, G12D); experiment: Protein-protein interaction inhibition between Kras and SOS1 (KrasG12D-SOS PPI) using AlphaScreen; format: biochemical; settings: AlphaScreen; biotin-tagged human Kras loaded with GDP, His-tagged human SOS1; read-out: KRAS G12D-SOS PPI IC50;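 note: kras produced in E. coli, Ni-coupled donor beads and streptavidin acceptor beads, excitation 680 nm with emission detected at 520–620 nm via singlet oxygen transfer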
[2] = test system: Human pancreatic cancer cell line AsPC-1 (G12D mutation Kras); experiment: AsPC-1 cell growth inhibition (AsPC-1 CGI); format: cell-based; settings: read-out: AsPC-1 cell growth inhibition, 50% growth inhibitory concentration (IC50 value); 96 hours, CellTiter-Glo, values classified in ranges
Experimental: Test compounds were serially dilated with dimethyl sulfoxide, and 200 nL was then dispensed to a U-bottom 96-well plate using Labcyte Echo. […] The cell suspension was dispensed to a. plate containing a test compound at 100 μL per well and incubated at 37° C. in a 5% carbon dioxide gas incubator. 96 hours later, 80 μL of CellTiter-Glo (Promega) was added to each well and fluorescence was measured.

Structure (SMILES) | pIC50 [1] | pIC50 [2]
CC[C@H](C)[C@@H]1NC(=O)[C@H](CC(C)C)N(C)C(=O)C[C@@H](C(=O)N2CCCCC2)N(C)C(=O)[C@H](C(C)C)N(C)C(=O)C2(CCCC2)NC(=O)[C@@H]2CCCN2C(=O)[C@H](CCc2ccc(C(F)(F)F)c(Cl)c2)NC(=O)CN(C)C(=O)[C@H](COCC(F)(F)F)N(C)C(=O)[C@@H]2CCN2C(=O)[C@H](C)N(C)C1=O [Compound 254] ([NMeL]I[NMeA][Aze][NMeS](Trifluoroethyl)[Sar][hPhe(3-Cl-4-CF3)]P[Ac5c][NMeV][NMeD]-Piperidide; lactam N-11) | 7.82 | < 6.30
CC[C@H](C)[C@@H]1NC(=O)[C@H](CC(C)C)N(C)C(=O)C[C@@H](C(=O)N2CCCCC2)N(C)C(=O)[C@H](C2CCCCC2)N(C)C(=O)C2(CCCC2)NC(=O)[C@H](Cc2ccc(OC)nc2)N(C)C(=O)[C@H](CCc2ccc(C(F)(F)F)c(Cl)c2)NC(=O)CN(C)C(=O)[C@H](CC2CCCCC2)N(C)C(=O)CN(C)C(=O)CN(C)C1=O [Compound 592] ([NMeL]I[Sar][Sar][NMeCha][Sar][hPhe(3-Cl-4-CF3)][X25][Ac5c][NMeChg][NMeD]-Piperidide; lactam N-11) | 7.59 | < 6.30
CCO[C@@H]1C[C@H]2C(=O)NC3(CCCC3)C(=O)N(C)[C@@H](C3CCCC3)C(=O)N(C)[C@H](C)CC(=O)N(C)[C@@H](CC(C)C)C(=O)N[C@@H]([C@@H](C)CC)C(=O)N(C)[C@@H](C)C(=O)N3CC[C@H]3C(=O)N(C)[C@@H](Cc3ccc(C(F)(F)F)cc3)C(=O)N(C)CC(=O)N[C@@H](CCc3ccc(C(F)(F)F)c(Cl)c3)C(=O)N2C1 [Compound 640] (cyclo([Ac5c][NMeGly(cPent)][NMedβ3hAla][NMeL]I[NMeA][Aze][NMePhe(4-CF3)][Sar][hPhe(3-Cl-4-CF3)][Hyp](Et))) | 9.07 | ≥ 7.70
CC[C@H](C)[C@@H]1NC(=O)[C@H](CC(C)C)N(C)C(=O)C[C@@H](C(=O)N2CCCCC2)N(C)C(=O)[C@H](COC)N(C)C(=O)C2(CCCC2)NC(=O)[C@@H]2CCCN2C(=O)[C@H](CCc2ccc(C(F)(F)F)c(Cl)c2)NC(=O)CN(C)C(=O)[C@H](CC2CCCCC2)N(C)C(=O)[C@@H]2CCN2C(=O)[C@H](C)N(C)C1=O [Compound 484] ([NMeL]I[NMeA][Aze][NMeCha][Sar][hPhe(3-Cl-4-CF3)]P[Ac5c][NMeS](Me)[NMeD]-Piperidide; lactam N-11) | 6.96 | < 6.30
CC(C)=CC[C@@H]1NC(=O)[C@H](CC(C)C)N(C)C(=O)C[C@@H](C(=O)N2CCCCC2)N(C)C(=O)[C@H](C(C)C)N(C)C(=O)C2(CCCC2)NC(=O)[C@@H]2CCCN2C(=O)[C@H](CCc2ccc(C(F)(F)F)c(Cl)c2)NC(=O)CN(C)C(=O)[C@H](CC2CCCCC2)N(C)C(=O)[C@@H]2CCN2C(=O)[C@H](C)N(C)C1=O [Compound 729] ([NMeL][X26][NMeA][Aze][NMeCha][Sar][hPhe(3-Cl-4-CF3)]P[Ac5c][NMeV][NMeD]-Piperidide; lactam N-11) | 7.37 | < 6.30
CC[C@H](C)[C@@H]1NC(=O)[C@H](CC(C)C)N(C)C(=O)C[C@@H](C(=O)N(C)C)N(C)C(=O)[C@H](C2CCCC2)N(C)C(=O)C2(CCCC2)NC(=O)[C@@H]2CCCN2C(=O)[C@H](CCc2ccc(C(F)(F)F)c(F)c2)NC(=O)CN(C)C(=O)[C@H](C2CCCC2)N(C)C(=O)[C@@H]2CCN2C(=O)[C@H](C)N(C)C1=O [Compound 134] ([NMeL]I[NMeA][Aze][NMeGly(cPent)][Sar][hPhe(3-F,4-CF3)]P[Ac5c][NMeGly(cPent)][NMeD]-NMe2; lactam N-11) | 9.21 | ≥ 7.70
CC[C@H](C)[C@@H]1NC(=O)[C@H](CC(C)C)N(C)C(=O)C[C@@H](C)NC(=O)[C@H](CC(C)C)N(C)C(=O)C(C)(C)NC(=O)[C@H](CC(C)C)N(C)C(=O)[C@H](CCc2ccc(C(F)(F)F)c(Cl)c2)NC(=O)CN(C)C(=O)[C@H](CCCCC(F)F)N(C)C(=O)CN(C)C(=O)CN(C)C1=O [Compound 1451] (cyclo([Aib][NMeL][d(β3hA)][NMeL]I[Sar][Sar][NMeNle(6-CHF2)][Sar][hPhe(3-Cl-4-CF3)][NMeL])) | 7.70 | < 6.30
CCC[C@H]1C(=O)N[C@@H]([C@@H](C)CC)C(=O)N(C)CC(=O)N(C)CC(=O)N(C)[C@@H](CC2CCCC2)C(=O)N(C)CC(=O)N[C@@H](CCc2ccc(C(F)(F)F)c(Cl)c2)C(=O)N(C)[C@@H](Cc2cccnc2)C(=O)NC2(CCCC2)C(=O)N(C)[C@@H](C2CCCCC2)C(=O)N(C)[C@H](C(=O)N2CCCC2)CC(=O)N1C [Compound 1946] ([NMeNva]I[Sar][Sar][NMeAla(cPent)][Sar][hPhe(3-Cl-4-CF3)][NMe3Pal][Ac5c][NMeChg][NMeD]-Pyrrolidide; lactam N-11) | 8.82 | < 6.30
